Data on 1 compound can be found in ChEMBL document CHEMBL3600293, “Design, synthesis and evaluation of MCH receptor 1 antagonists--Part I: Optimization of HTS hits towards an in vivo efficacious tool compound BI 414” (Bioorg Med Chem Lett, 2015).

Data set [1] in a line: in vitro. The following applies: rat, liver microsomes. For orientation: Liver microsomes are vesicles of endoplasmic reticulum, rich in cytochrome P450 enzymes.
Description: Half life in rat liver microsomes
Data set [2] can be described thus: in vitro. To be noted: human, liver microsomes.
Description: Half life in human liver microsomes

Where only a bound is given, the exact number is not on record here.

Regarding `NC(=O)C1CCN(CCOc2ccc(C#Cc3ccc(-c4ccc(Cl)cc4)cn3)cc2)CC1`, the half-life (commonly how long it takes for the measured level to halve) was 21 min in the data set “in vitro [1]” and above 90 min in the data set “in vitro [2]”.
